Measured values taken from PMC3528830 (ACS chemical biology, 2012).

B1: MBNL1: muscleblind-like 1 protein, RNA splicing regulator (protein, UniProt Q9NR56 1-388, looked up)
Muscleblind-like protein 1: MAVSVTPIRDTKWLTLEVCREFQRGTCSRPDTECKFAHPSKSCQVENGRVIACFDSLKGRCSRENCKYLHPPPHLKTQLEINGRNNLIQQKNMAMLAQQMQLANAMMPGAPLQPVPMFSVAPSLATNASAAAFNPYLGPVSPSLVPAEILPTAPMLVTGNPGVPVPAAAAAAAQKLMRTDRLEVCREYQRGNCNRGENDCRFAHPADSTMIDTNDNTVTVCMDYIKGRCSREKCKYFHPPAHLQAKIKAAQYQVNQAAAAQAAATAAAMTQSAVKSLKRPLEATFDLGIPQAVLPPLPKRPALEKTNGATAVFNTGIFQYQQALANMQLQQHTAFLPPVPMVHGATPATVSAATTSATSVPFAATATANQIPIISAEHLTSHKYVTQM

Columns and labels:
[1] = system: r(CUG)10-MBNL1 complex; experiment: qTR-FRET assay, disruption of pre-formed r; type: biochemical; conditions: read-out: IC50 for r(CUG)-MBNL1, pre-formed r(CUG)10-MBNL1 complex, displacement
[2] = molecular target: tRNA; experiment: RNA binding assay; set-up: species or system yeast; conditions: read-out: tRNA Kd
[3] = molecular target: r(CUG)12×2; conditions: read-out: r(CUG)12×2 Kd; data taken from a previous report; cited from earlier work

Molecule	IC50 [1]	Kd [2]	Kd [3]
NC1C(O)[C@H](OC2[C@H](N)CC(N)[C@@H](O[C@H]3OC(CNC(=O)CCCc4cn(CCCNC(=S)Nc5ccc(-c6c7ccc(=O)cc-7oc7cc(O)ccc67)c(C(=O)O)c5)nn4)[C@@H](O)[C@H](O)C3O)[C@@H]2O)OC(CO)[C@@H]1O (stereo partly shown) [FITC-K]	> 250000 nM	> 10000 nM	1000 ± 250 nM
B1			250 nM
